From ChEMBL document CHEMBL1201862, “PubChem BioAssay data set” (2004)
The source made the active and inactive calls.

Assays:
[1] = microbe, parasite or virus in culture; type: functional; conditions: Mycobacterium tuberculosis
BJ [2] = experiment: cells; type: functional, cell-based; conditions: Homo sapiens
[3] = A Cell Based Secondary Assay to Explore Cytotoxicity in HepG2 Cells of Compounds that Modulate Mycobacterium tuberculosis in Media Containing Glycerol versus Media without Glycerol (2).; type: functional
BJ [4] = experiment: cytotoxicity toward BJ-TERT-LT-ST fibroblasts, dose response, cell-based, RAS-independent, luminescence (AID 1935); type: functional; conditions: Homo sapiens;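 note: BJ fibroblasts immortalized with TERT plus LT and ST oncogenes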
[5] = cytotoxicity toward DRD oncogenic fibroblasts, dose response, cell-based, non-viral oncogenic, luminescence (AID 1934); type: functional; conditions: Homo sapiens
[6] = A Cell Based Secondary Assay to Explore Cytotoxicity in THP-1 Cells of Compounds that Modulate Mycobacterium tuberculosis in Media Containing Glycerol versus Media without Glycerol (2).; type: functional
[7] = molecular target: Heat shock protein HSP 90-alpha (Homo sapiens, UniProt P07900); type: functional, organism-based
Streptococcus = experiment: Group A Streptococcus viability loss, dose response, counter-screen for streptokinase expression inhibitor project, luminescence, BacTiterGlo (AID 1915); type: functional, organism-based;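 note: potency for reduction of bacterial viability or growth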
INS1 = experiment: beta cell apoptosis inhibitors, cytokine rescue, dose response, luminescence, retest (AID 449756); type: functional, cell-based; conditions: Rattus norvegicus;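 note: cell death triggered by IL-1 beta plus TNF-alpha plus IFN-gamma mixture; protective hits raise ATP signal compared with cytokine alone wells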
[8] = THP-1 cell cytotoxicity, cytotoxicity control, set 4 (AID 504911); type: functional; conditions: Mycobacterium tuberculosis
[9] = Vero cell cytotoxicity, cytotoxicity control for M. tuberculosis inhibitor project, purified and synthesized samples, set 3 (AID 504684); type: functional
[10] = THP-1 cell cytotoxicity, dose response, cytotoxicity control, set 3 (AID 504852); type: functional; conditions: Mycobacterium tuberculosis
Streptokinase A = molecular target: T1, Streptokinase A (Streptococcus pyogenes serotype M1, UniProt P10520); experiment: S. pyogenes streptokinase expression inhibitors, potency, dose response, plasminogen activation absorbance, OD405 (AID 1914); type: functional, Streptococcus pyogenes M1 GAS;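 note: secreted streptokinase activity via plasminogen activation per viability signal from cell pellet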
T1 sequence (P10520 whole entry): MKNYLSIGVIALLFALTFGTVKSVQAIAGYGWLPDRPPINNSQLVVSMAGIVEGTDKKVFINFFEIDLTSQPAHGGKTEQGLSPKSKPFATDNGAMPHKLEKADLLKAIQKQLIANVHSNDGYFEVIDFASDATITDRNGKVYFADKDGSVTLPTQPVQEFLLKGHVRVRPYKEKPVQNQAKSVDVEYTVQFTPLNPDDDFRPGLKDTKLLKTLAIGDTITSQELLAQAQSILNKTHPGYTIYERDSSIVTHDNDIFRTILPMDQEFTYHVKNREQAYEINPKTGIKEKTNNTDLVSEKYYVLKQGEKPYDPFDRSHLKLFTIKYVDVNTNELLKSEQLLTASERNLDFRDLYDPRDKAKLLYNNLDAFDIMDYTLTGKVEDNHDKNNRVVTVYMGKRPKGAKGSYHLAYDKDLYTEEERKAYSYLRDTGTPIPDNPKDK

[11] = tested on: Streptococcus sp. 'group A'; experiment: growth inhibition of control SK(-) GAS strain, dose response, counter-screen for streptokinase expression inhibitor project, luminescence, kanamycin, BacTiterGlo, confirmation (AID 1900); type: functional, organism-based
[12] = molecular target: T2, Heat shock factor protein 1 (Mus musculus, UniProt P38532); experiment: HSF1 potentiators in luciferase reporter cells, confirmation, cell-based, NIH3T3, luminescence, dose retest (AID 435004); type: functional;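 note: stress induced by proteasome inhibitor MG132 added 30 min after compound; luciferase reporter driven by HSF1 response element in NIH3T3 cells; actives raise luminescence as potentiators of the MG132 stress response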
T2 sequence (P38532 whole entry): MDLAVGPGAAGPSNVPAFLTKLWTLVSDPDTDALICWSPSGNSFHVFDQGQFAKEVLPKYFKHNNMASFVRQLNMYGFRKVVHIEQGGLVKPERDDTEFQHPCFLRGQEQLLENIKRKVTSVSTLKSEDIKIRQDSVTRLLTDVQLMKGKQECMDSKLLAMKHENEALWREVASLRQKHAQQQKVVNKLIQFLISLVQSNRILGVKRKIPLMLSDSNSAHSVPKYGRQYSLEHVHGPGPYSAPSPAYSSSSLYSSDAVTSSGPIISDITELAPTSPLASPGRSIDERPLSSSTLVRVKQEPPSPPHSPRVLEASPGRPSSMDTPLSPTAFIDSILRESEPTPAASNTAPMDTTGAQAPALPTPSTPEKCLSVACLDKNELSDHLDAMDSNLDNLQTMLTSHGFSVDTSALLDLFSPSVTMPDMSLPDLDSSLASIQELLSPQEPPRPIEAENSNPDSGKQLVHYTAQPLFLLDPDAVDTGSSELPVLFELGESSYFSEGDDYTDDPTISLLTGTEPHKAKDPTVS

BJ [13] = experiment: cytotoxicity toward BJ-TERT fibroblasts, dose response, cell-based, RAS-independent, luminescence (AID 1933); type: functional; conditions: Homo sapiens

## Cc1cccc(/C=C/C(=O)c2ccc([N+](=O)[O-])o2)c1
[1]
  CC50: 18.8 µM (active)
BJ [2]
  EC50: > 150 µM (inconclusive)
[3]
  CC50: 8.39 µM (active)
BJ [4]
  EC50: > 150 µM (inconclusive)
[5]
  EC50: 2.23 µM (active)
[6]
  CC50: 12.2 µM (active)
[7]
  AC50: 2.39 µM (active)
Streptococcus
  EC50: 14.4 µM (active)
INS1
  AC50: 3.29 µM (active)
[8]
  CC50: > 100 µM (active)
[9]
  CC50: 12.4 µM (active)
[10]
  CC50: > 100 µM (active)
Streptokinase A
  EC50: 9.69 µM (active)
[11]
  EC50: 3.96 µM (active)
[12]
  EC50: 3.43 µM (inconclusive)
BJ [13]
  EC50: > 150 µM (not active)
